What was measured:
dopamine receptors = details: present data
[1] = biological target: human cloned dopamine receptor D2L (Homo sapiens, UniProt P14416); details: R(+) versus S(−)
Experimental: (§1) Eight concentrations were tested: 50 nM, 100 nM, 500 nM, 1 μM, 5 μM, 10 μM, 50 μM, 100 μM. These concentrations were tested in either CHO (Chinese hamster ovary) or HEK293 (human embryonic kidney) cell lines expressing human cloned dopamine receptors (D1, D2S, D2L, D3, D4, D5). The radio-ligand in each case was either [^3H] spiperone or [^3H] SCH23390 (a classic D1 dopamine receptor antagonist R-(+)-7-Chloro-8-hydroxy-3-methyl-1-phenyl-2,3,4,5-tetrahydro-1H-3-benzazepine hydrochloride), both antagonists at 0.3 nM. Incubation was for 60 minutes, and data were collected for 2 repeats using scintillation counting.

[2] = biological target: human cloned dopamine receptor D2S (Homo sapiens, UniProt P14416); details: R(+) versus S(−)
human cloned dopamine receptor D2S, sequence (P14416 1-414 isoform P14416-2): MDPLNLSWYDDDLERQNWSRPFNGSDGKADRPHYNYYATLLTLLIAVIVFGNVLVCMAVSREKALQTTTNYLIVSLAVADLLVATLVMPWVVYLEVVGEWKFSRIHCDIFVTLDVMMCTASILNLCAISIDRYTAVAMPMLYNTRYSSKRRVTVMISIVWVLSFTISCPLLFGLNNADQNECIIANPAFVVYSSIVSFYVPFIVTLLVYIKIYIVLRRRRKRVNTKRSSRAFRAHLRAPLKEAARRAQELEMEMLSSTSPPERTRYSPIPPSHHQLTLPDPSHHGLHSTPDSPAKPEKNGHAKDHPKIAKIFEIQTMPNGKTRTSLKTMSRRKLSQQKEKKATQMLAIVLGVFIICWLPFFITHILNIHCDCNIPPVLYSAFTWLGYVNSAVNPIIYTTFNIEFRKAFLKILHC
Experimental: as §1

[3] = biological target: human cloned dopamine receptor D3 (Homo sapiens, UniProt P35462); experiment: biochemical
human cloned dopamine receptor D3, sequence (P35462 whole entry): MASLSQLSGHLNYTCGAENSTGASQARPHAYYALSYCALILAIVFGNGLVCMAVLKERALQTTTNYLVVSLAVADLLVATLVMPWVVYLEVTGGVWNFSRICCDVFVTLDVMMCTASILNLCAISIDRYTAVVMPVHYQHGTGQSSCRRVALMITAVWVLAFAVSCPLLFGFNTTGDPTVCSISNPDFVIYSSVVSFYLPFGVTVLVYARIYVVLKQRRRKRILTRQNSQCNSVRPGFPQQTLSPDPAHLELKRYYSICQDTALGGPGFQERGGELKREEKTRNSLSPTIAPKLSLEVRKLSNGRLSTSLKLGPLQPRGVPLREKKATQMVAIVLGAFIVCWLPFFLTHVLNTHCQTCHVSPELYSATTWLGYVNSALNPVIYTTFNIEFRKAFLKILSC
Experimental: as §1

[4] = biological target: human cloned dopamine receptor D5 (Homo sapiens, UniProt P21918); experiment: biochemical
human cloned dopamine receptor D5, sequence (P21918 whole entry): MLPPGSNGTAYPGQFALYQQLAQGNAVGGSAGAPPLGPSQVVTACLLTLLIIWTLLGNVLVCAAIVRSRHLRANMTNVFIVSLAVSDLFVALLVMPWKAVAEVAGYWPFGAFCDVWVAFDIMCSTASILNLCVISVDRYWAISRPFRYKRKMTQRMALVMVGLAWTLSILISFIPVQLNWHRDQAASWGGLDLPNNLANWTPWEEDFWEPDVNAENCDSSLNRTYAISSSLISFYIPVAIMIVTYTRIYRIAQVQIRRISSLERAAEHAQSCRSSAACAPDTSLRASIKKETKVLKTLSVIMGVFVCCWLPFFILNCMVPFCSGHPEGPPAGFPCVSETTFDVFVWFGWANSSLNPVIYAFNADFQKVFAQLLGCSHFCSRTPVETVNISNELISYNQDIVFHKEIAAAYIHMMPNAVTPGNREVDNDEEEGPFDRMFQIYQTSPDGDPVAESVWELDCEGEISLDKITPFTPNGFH
Experimental: as §1

[5] = Dissolution of exploratory combination capsules in simulated gastric fluid (SGF), chiral HPLC; format: physicochemical; details: for Average Concentrations of the enantiomer, Experiments SGF (1) and SGF (2) / Concentration of the enantiomer in SGF (1) Vessel / Concentration of the enantiomer in SGF (2) Vessel: combination capsule in 10 mL SGF pH 1.2
Experimental: Drug Formulation. […] Normal phase, chiral HPLC was used for monitoring the release of R(+) pramipexole and S(−) pramipexole in simulated gastric fluid (SGF).
Dissolution Study. SGF (pH=1.2) was prepared by diluting 1 g of sodium chloride and 7 mL of concentrated HCl to 1 L with HPLC grade water. The dissolution experiment was run as follows: an exploratory combination capsule was placed in 10 mL of SGF and shaken under ambient conditions at 600 RPM for 60 minutes. Aliquots of 100 μL were pulled from the same sample vessel at various time points. The 100 μL samples of SGF solution were evaporated using a nitrogen bleed and heat and the residues were dissolved in the HPLC diluent and filtered through 0.45 μm syringe filters. […] This experiment was performed in duplicate (experiment numbers SGF (1) (see Table 4) and SGF (2) (see Table 5)) and the results are also provided in average values (see Table 6). The tables and figures below summarize the results from these experiments.

[6] = 4320 minutes, stored benchtop in clear vial
[7] = non-naïve male beagle dogs, single oral dose

human cloned dopamine receptor D2L, sequence (P14416 whole entry): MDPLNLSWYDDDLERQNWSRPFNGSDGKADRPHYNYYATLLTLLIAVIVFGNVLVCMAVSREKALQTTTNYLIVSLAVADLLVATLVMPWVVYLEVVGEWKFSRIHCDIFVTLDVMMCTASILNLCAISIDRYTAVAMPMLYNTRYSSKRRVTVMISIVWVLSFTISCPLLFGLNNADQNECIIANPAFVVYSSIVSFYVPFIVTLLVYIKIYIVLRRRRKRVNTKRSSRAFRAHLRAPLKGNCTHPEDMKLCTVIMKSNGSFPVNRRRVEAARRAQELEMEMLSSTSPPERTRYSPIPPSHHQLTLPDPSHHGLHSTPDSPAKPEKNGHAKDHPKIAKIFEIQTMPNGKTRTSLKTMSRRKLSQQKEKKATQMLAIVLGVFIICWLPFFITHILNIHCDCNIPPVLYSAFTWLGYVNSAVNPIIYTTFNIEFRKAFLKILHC
Experimental for male beagle dogs: Doses were administered orally by gavage and clinical observations were taken continuously following dosing: hourly for the first four hours, and then twice daily cage-side observations for the duration of the inter-dose or post-dose interval. Observations were made of clinical signs, mortality, injury and availability of food and water. Animals were fasted for 24 hr prior to dosing. Dogs in each group were exposed to only one drug, or the combination; each dose was administered only once, with a subsequent dose administered after a recovery period of 4 days.

CCCN[C@H]1CCc2nc(N)sc2C1 (single isomer, unassigned) [R(+) pramipexole]
less active as a dopamine agonist than the S(−) enantiomer (dopamine receptors): more than 5,000 fold
lower affinity for the D2L receptor subtype than the S(−) enantiomer [1]: > 10,000 fold
lower affinity for the D2S receptor subtype than the S(−) enantiomer [2]: > 10,000 fold
IC50 [3]: 12 µM
Ki [3]: 2.7 µM
less affinity for the D3 receptor subtype than the S(−) enantiomer ([3]; R(+) versus S(−)): about 5,000 fold
IC50 [4]: > 100 µM
Ki [4]: > 100 µM
Average Concentrations of the enantiomer, Experiments SGF (1) and SGF (2) ([5]; 3 minutes): 0 mg/mL
Concentration of the enantiomer in SGF (1) Vessel ([5]; 3 minutes): 0 µg/mL
Concentration of the enantiomer in SGF (2) Vessel ([5]; 3 minutes): 0 µg/mL
Average Concentrations of the enantiomer, Experiments SGF (1) and SGF (2) ([5]; 4 minutes): 0.002035 mg/mL
Concentration of the enantiomer in SGF (1) Vessel ([5]; 4 minutes): 1.824 µg/mL
Concentration of the enantiomer in SGF (2) Vessel ([5]; 4 minutes): 2.245 µg/mL
Average Concentrations of the enantiomer, Experiments SGF (1) and SGF (2) ([5]; 6 minutes): 0.06814 mg/mL
Concentration of the enantiomer in SGF (1) Vessel ([5]; 6 minutes): 42.59 µg/mL
Concentration of the enantiomer in SGF (2) Vessel ([5]; 6 minutes): 93.7 µg/mL
Average Concentrations of the enantiomer, Experiments SGF (1) and SGF (2) ([5]; 8 minutes): 7.346 mg/mL
Concentration of the enantiomer in SGF (1) Vessel ([5]; 8 minutes): 6441 µg/mL
Concentration of the enantiomer in SGF (2) Vessel ([5]; 8 minutes): 8250 µg/mL
Average Concentrations of the enantiomer, Experiments SGF (1) and SGF (2) ([5]; 10 minutes): 8.615 mg/mL
Concentration of the enantiomer in SGF (1) Vessel ([5]; 10 minutes): 8443 µg/mL
Concentration of the enantiomer in SGF (2) Vessel ([5]; 10 minutes): 8787 µg/mL
Average Concentrations of the enantiomer, Experiments SGF (1) and SGF (2) ([5]; 11 minutes): 8.938 mg/mL
Concentration of the enantiomer in SGF (1) Vessel ([5]; 11 minutes): 8746 µg/mL
Concentration of the enantiomer in SGF (2) Vessel ([5]; 11 minutes): 9131 µg/mL
Average Concentrations of the enantiomer, Experiments SGF (1) and SGF (2) ([5]; 12 minutes): 8.927 mg/mL
Concentration of the enantiomer in SGF (1) Vessel ([5]; 12 minutes): 8767 µg/mL
Concentration of the enantiomer in SGF (2) Vessel ([5]; 12 minutes): 9086 µg/mL
Average Concentrations of the enantiomer, Experiments SGF (1) and SGF (2) ([5]; 14 minutes): 9.164 mg/mL
Concentration of the enantiomer in SGF (1) Vessel ([5]; 14 minutes): 9236 µg/mL
Concentration of the enantiomer in SGF (2) Vessel ([5]; 14 minutes): 9092 µg/mL
Average Concentrations of the enantiomer, Experiments SGF (1) and SGF (2) ([5]; 15 minutes): 9.463 mg/mL
Concentration of the enantiomer in SGF (1) Vessel ([5]; 15 minutes): 9510 µg/mL
Concentration of the enantiomer in SGF (2) Vessel ([5]; 15 minutes): 9416 µg/mL
Average Concentrations of the enantiomer, Experiments SGF (1) and SGF (2) ([5]; 17 minutes): 9.438 mg/mL
Concentration of the enantiomer in SGF (1) Vessel ([5]; 17 minutes): 9398 µg/mL
Concentration of the enantiomer in SGF (2) Vessel ([5]; 17 minutes): 9477 µg/mL
Average Concentrations of the enantiomer, Experiments SGF (1) and SGF (2) ([5]; 18 minutes): 9.258 mg/mL
Concentration of the enantiomer in SGF (1) Vessel ([5]; 18 minutes): 9127 µg/mL
Concentration of the enantiomer in SGF (2) Vessel ([5]; 18 minutes): 9390 µg/mL
Average Concentrations of the enantiomer, Experiments SGF (1) and SGF (2) ([5]; 20 minutes): 9.475 mg/mL
Concentration of the enantiomer in SGF (1) Vessel ([5]; 20 minutes): 9457 µg/mL
Concentration of the enantiomer in SGF (2) Vessel ([5]; 20 minutes): 9493 µg/mL
Average Concentrations of the enantiomer, Experiments SGF (1) and SGF (2) ([5]; 25 minutes): 9.61 mg/mL
Concentration of the enantiomer in SGF (1) Vessel ([5]; 25 minutes): 9579 µg/mL
Concentration of the enantiomer in SGF (2) Vessel ([5]; 25 minutes): 9641 µg/mL
Average Concentrations of the enantiomer, Experiments SGF (1) and SGF (2) ([5]; 30 minutes): 9.65 mg/mL
Concentration of the enantiomer in SGF (1) Vessel ([5]; 30 minutes): 9894 µg/mL
Concentration of the enantiomer in SGF (2) Vessel ([5]; 30 minutes): 9406 µg/mL
Average Concentrations of the enantiomer, Experiments SGF (1) and SGF (2) ([5]; 60 minutes): 9.127 mg/mL
Concentration of the enantiomer in SGF (1) Vessel ([5]; 60 minutes): 9530 µg/mL
Concentration of the enantiomer in SGF (2) Vessel ([5]; 60 minutes): 8725 µg/mL
Average Concentrations of the enantiomer, Experiments SGF (1) and SGF (2) [5, 6]: 4.163 mg/mL
Concentration of the enantiomer in SGF (1) Vessel [5, 6]: 3624 µg/mL
Concentration of the enantiomer in SGF (2) Vessel [5, 6]: 4702 µg/mL
course of release from the capsule ([5]; SGF pH 1.2, 60 minutes): leveled off after 11 minutes
cause of decrease in concentration at approximately 72 hours ([5]; SGF samples stored benchtop in a clear vial): light degradation
human dose equivalent to dog MTD (male beagle dogs; 70 kg individual): about 3,000 mg
MTD greater than for the S(−) enantiomer (male beagle dogs; non-naïve dogs): about 10,000 fold
NOAEL greater than for the S(−) enantiomer (male beagle dogs; non-naïve dogs): approximately 20,000 fold
MTD (male beagle dogs; [7]): 75 mg/kg
NOAEL (male beagle dogs; [7]): 25 mg/kg
